The values below come from patent US5405843A, “Quinoline derivatives” (Mitsui Toatsu Chemicals, Incorporated, priority 1988, dated 1995).

Test [1] relates to Vincristine-resistant strain P388/VCR cells of mouse leukemia P388 cells. The test can be described thus: Potentiating effect on vincristine in mice having vincristine-resistant mouse leukemia (survival). It counts as in vivo, mouse (female CDFI mice). Conditions: peritoneal, once a day for 5 days; for T/C (rate of life prolongation): control = 100.
For test [2], the system named is Adriamycin resistant strain K562/ADM cells of human myeloleukemia K562 cells. The test can be described thus: Potentiating effect on activity of vincristine against adriamycin-resistant cells (growth inhibition). Format: cell-based. Particulars: for effect in potentiating vincristine activity, multiples of the control: ratio to control IC50 655. An excerpt:
Potentiating Effect of the Compounds on Activity of Anticancer Drugs

Test [3] relates to Adriamycin resistant strain 2780 AD cells of human ovarian cancer A2780 cells. The test can be described thus: Potentiating effect on incorporation of 3H-vincristine into adriamycin-resistant cancer cells. Conditions: Homo sapiens, 2780AD, 2 h, 20 nM 3H-vincristine, control = 100, read-out: 3H-vincristine accumulation; for activity at 1 µg/mL: compound 1 μg/ml; for activity at 10 µg/mL: compound 10 μg/ml. It counts as cell-based. In a few lines:
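Cells at 1×10^6/ml were grown 24 h, then incubated 2 h at 37 °C in RPMI-1640 with 20 nM ^3H-vincristine, 5% FCS and compound (solution at 1.0 or 10.0 μg/ml). After washing and lysis in 0.2N NaOH, cellular ^3H-vincristine was counted by scintillation.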

Test [4] relates to drug-resistant cancer cells. Conditions: calcium antagonists such as verapamil; cited from earlier work.
[5] abbreviates: compound 3 mg/kg + vincristine 100 ug/kg.
Where [6] appears, read: compound 10 mg/kg + vincristine 100 ug/kg.
Setting [7] is: compound 30 mg/kg + vincristine 100 ug/kg.

For the compound `OC(COc1cccc2ncccc12)CN1CCN(C(c2ccccc2)c2ccccc2)CC1` (stereo not drawn) [Example 1, 5-[3-(4-Diphenylmethylpiperazine-1-yl)-2-hydroxypropoxy]quinoline], the results for the Average surviving period in test [1] (setting [5]), in test [1] (setting [6]) and in test [1] (setting [7]) were 12.4 ± 0.2 days, 12.2 ± 0.4 days and 12.8 ± 0.4 days, respectively. The “T/C (rate of life prolongation)” value in test [1] (setting [5]) is recorded as 111%; in test [1] (setting [6]) it was 109%; in test [1] (setting [7]), 114%. The results for the “effect in potentiating vincristine activity, multiples of the control” value in test [2] (compound 0.3 μg/ml), in test [2] (compound 1 μg/ml) and in test [2] (compound 3 μg/ml) were 151.2, 342.1 and 433.3, respectively. Further, the activity at 1 µg/mL in test [3] is 717%. The activity at 10 µg/mL in test [3] turned out to be 747%.
As for `OC(COc1cccc2ncccc12)CN1CCN(C2c3ccccc3CCc3ccccc32)CC1` (stereo not drawn) [Example 2, 5-[3-(4-(Dibenzosuberane-5-yl)piperazine-1-yl)-2-hydroxypropoxy]quinoline], the Average surviving period in test [1] (setting [5]) is 12.6 ± 0.2 days; in test [1] (setting [7]), 15.2 ± 0.7 days. The “T/C (rate of life prolongation)” value in test [1] (setting [5]) stood at 113%; in test [1] (setting [7]), 136%. The figures for the “effect in potentiating vincristine activity, multiples of the control” value in test [2] (compound 0.3 μg/ml), in test [2] (compound 1 μg/ml) and in test [2] (compound 3 μg/ml) were 330.3, 388.0 and 550.0, respectively. Moreover, in test [3], the activity at 1 µg/mL was found to be 663%. Moreover, the activity at 10 µg/mL in test [3] came out at 709%.
As to `Cc1cc(C)c2c(OCC(O)CN3CCN(C(=O)N4c5ccccc5CCc5ccccc54)CC3)cccc2n1` (stereo not drawn) [Example 61, 2,4-Dimethyl-5-[3-(4-(iminodibenzyl-5-carbonyl)piperazine-1-yl)-2-hydroxypropoxy]quinoline], in test [1] (setting [7]), the Average surviving period amounted to 11.5 ± 0.3 days and the “T/C (rate of life prolongation)” value is listed as 108%. Moreover, in test [3], the activity at 1 µg/mL is 519% and the activity at 10 µg/mL is 602%.
Turning to `OC(COc1cccc2ncccc12)CN1CCC(C2(O)c3ccccc3CCc3ccccc32)CC1` (stereo not drawn) [Example 78, 5-[2-Hyroxy-3-(4-(5-hydroxydibenzosuberane-5-yl)piperidine-1-yl)propoxy]quinoline], in test [1] (setting [7]), the Average surviving period was 12.8 ± 0.8 days and the “T/C (rate of life prolongation)” value was 120%. Besides, the activity at 1 µg/mL in test [3] turned out to be 943%.
Turning to `OC(COc1cccc2ncccc12)CN1CCC(=C2c3ccccc3CCc3ccccc32)CC1` (stereo not drawn) [Example 80, 5-[3-(4-(Dibenzosuberane-5-ylidene)piperidine-1-yl)-2-hydroxypropoxy]quinoline], in test [1] (setting [7]), the Average surviving period came out at 14.3 ± 0.6 days and the “T/C (rate of life prolongation)” value was 134%. Also, the activity at 1 µg/mL in test [3] was 942%.
On the same counts, the results for `OC(COc1cccc2ncccc12)CN1CCC(C2c3ccccc3CCc3ccccc32)CC1` (stereo not drawn) [Example 81, 5-[3-(4-(Dibenzosuberane-5-yl)piperidine-1-yl)-2-hydroxypropoxy]quinoline] are 13.2 ± 0.9 days, 123% and 992%.
On the same counts, the results for `CN(CCCN1c2ccccc2CCc2ccccc21)CC(O)COc1cccc2ncccc12` (stereo not drawn) [Example 82, 5-[3-(N-Methyl-N-(3-(5H-10,11-dihydrodibenzo(b,f)-azepin-5-yl)propyl)amino]-2-hydroxypropoxy]quinoline] are 11.2 ± 1.4 days, 105% and 667%.
Take `c1ccc2c(c1)CCc1ccccc1C2N1CCN(CCCOc2cccc3ncccc23)CC1` [Example 83, 5-[3-(4-(Dibenzosuberane-5-yl)piperazine-1-yl)propoxy]quinoline]: in test [1] (setting [7]), the Average surviving period is 13.5 ± 0.5 days and the “T/C (rate of life prolongation)” value is given as 126%. Besides, the activity at 1 µg/mL in test [3] was 957%.
On to `c1ccc(C(=C2CCN(CCCOc3cccc4ncccc34)CC2)c2ccccc2)cc1` [Example 84, 5-[3-(4-(Diphenylmethylene)piperidine-1-yl)propoxy]quinoline], for which, in test [1] (setting [7]), the Average surviving period is 13.0 ± 0.7 days and the “T/C (rate of life prolongation)” value is reported as 121%. For the same compound, in test [3], the activity at 1 µg/mL was 159% and the activity at 10 µg/mL was found to be 878%.
On to `CC[C@]1(O)C[C@H]2CN(CCc3c([nH]c4ccccc34)[C@@](C(=O)OC)(c3cc4c(cc3OC)N(C=O)[C@H]3[C@@](O)(C(=O)OC)[C@H](OC(C)=O)[C@]5(CC)C=CCN6CC[C@]43[C@@H]65)C2)C1` [Vincristine, vincristine, reference compound], for which the IC50 in test [2] (Homo sapiens, K562, read-out: IC50 (vincristine concentration at which 50% of the growth was inhibited)) was found to be 0.655 µg/mL.
With `COc1ccc(CCN(C)CCCC(C#N)(c2ccc(OC)c(OC)c2)C(C)C)cc1OC` (stereo not drawn) [verapamil], the “prevention of discharge of anticancer drugs from cancer cells” value in test [4] is recorded as “prevent discharge of anticancer drugs from cancer cells”.
